Where two headings read alike, the source gives them in different places.
Key:
mTORC1 = biological target: T1, mTORC1 (Homo sapiens, UniProt P42345+P62942); assay: Inhibition assay for mTORC1: phosphorylation of pS6K at Thr389, AlphaLISA in PC3 cells; assay type: cell-based; settings: for IC50: read-out: pIC50 mTORC1 (converted)
T1 construct: endogenous in cells; host or cells: PC3 cells (human prostate adenocarcinoma)
Experimental: (§1) The IC50s of the inhibition of mTORC1 and mTORC2 were determined in vitro by determining the phosphorylation of pS6K at position Thr389 (mTORC1 inhibition) and pAkt at Ser473 (mTORC2 inhibition). In vitro studies were performed with AlphaLISA® technology using PC3 cells (Prostate Adenocarcinoma; Human (Homo sapiens)). The cells were seeded in 96 well plates and were treated for 24 hours with the different compounds. […] All analysis were performed using GraphPad Prism 7.0 (GraphPad Software, San Diego, USA).

mTORC2 = biological target: T2, mTORC2 (Homo sapiens, UniProt P42345+P62942); assay: Inhibition assay for mTORC2: phosphorylation of pAkt at Ser473, AlphaLISA in PC3 cells; assay type: cell-based; settings: for IC50: read-out: pIC50 mTORC2 (converted)
T2 construct: endogenous in cells; host or cells: PC3 cells (human prostate adenocarcinoma)
T2 sequence (P62942 2-108 limits assumed, other chains not shown): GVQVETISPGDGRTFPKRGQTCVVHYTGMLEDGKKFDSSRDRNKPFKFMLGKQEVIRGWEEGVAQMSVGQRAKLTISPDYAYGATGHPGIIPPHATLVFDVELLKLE
Experimental: as §1

[1] = PC3 cells, treated 24 hours, pS6K Thr389, AlphaLISA, C16 diastereomer mixtures not separated
[2] = PC3 cells, treated 24 hours, pAkt Ser473, AlphaLISA, C16 diastereomer mixtures not separated

Row | pIC50 mTORC1 (mTORC1; [1]) | pIC50 mTORC2 (mTORC2; [2]) | IC50 (mTORC1) [nM] | IC50 (mTORC2) [nM] | SMILES | other results
1 |  |  | > 3.16 | 1000 to 10000 | CO[C@@H]1C[C@H](C[C@@H](C)[C@@H]2CC(=O)[C@H](C)/C=C(\C)[C@@H](O)[C@@H](OC)C(=O)[C@H](C)C[C@H](C)/C=C/C=C/C=C(\C)C(SC(C)C)C[C@@H]3CC[C@@H](C)[C@@](O)(O3)C(=O)C(=O)N3CCCCC3C(=O)O2)CC[C@H]1O (some centres unmarked) [Compound 201] | 
2 |  |  | > 3.16 | 1000 to 10000 | CO[C@@H]1C[C@H](C[C@@H](C)[C@@H]2CC(=O)[C@H](C)/C=C(\C)[C@@H](O)[C@@H](OC)C(=O)[C@H](C)C[C@H](C)/C=C/C=C/C=C(\C)C(c3ccc(C)s3)C[C@@H]3CC[C@@H](C)[C@@](O)(O3)C(=O)C(=O)N3CCCCC3C(=O)O2)CC[C@H]1O (some centres unmarked) [Compound 202] | 
3 |  |  | > 3.16 | 1000 to 10000 | CO[C@@H]1C[C@H](C[C@@H](C)[C@@H]2CC(=O)[C@H](C)/C=C(\C)[C@@H](O)[C@@H](OC)C(=O)[C@H](C)C[C@H](C)/C=C/C=C/C=C(\C)C(c3cc(C)cs3)C[C@@H]3CC[C@@H](C)[C@@](O)(O3)C(=O)C(=O)N3CCCCC3C(=O)O2)CC[C@H]1O (some centres unmarked) [Compound 203] | 
4 |  |  | < 0.316 | < 1000 | CO[C@@H]1C[C@H](C[C@@H](C)[C@@H]2CC(=O)[C@H](C)/C=C(\C)[C@@H](O)[C@@H](OC)C(=O)[C@H](C)C[C@H](C)/C=C/C=C/C=C(\C)C(O[C@H](CO)c3ccccc3)C[C@@H]3CC[C@@H](C)[C@@](O)(O3)C(=O)C(=O)N3CCCCC3C(=O)O2)CC[C@H]1O (some centres unmarked) [Compound 204] | 
5 |  |  | < 0.316 | < 1000 | CO[C@@H]1C[C@H](C[C@@H](C)[C@@H]2CC(=O)[C@H](C)/C=C(\C)[C@@H](O)[C@@H](OC)C(=O)[C@H](C)C[C@H](C)/C=C/C=C/C=C(\C)C(OCc3ccccc3)C[C@@H]3CC[C@@H](C)[C@@](O)(O3)C(=O)C(=O)N3CCCCC3C(=O)O2)CC[C@H]1O (some centres unmarked) [Compound 205] | 
6 |  |  | 0.316 to 3.16 | 1000 to 10000 | CO[C@H](COC1C[C@@H]2CC[C@@H](C)[C@@](O)(O2)C(=O)C(=O)N2CCCCC2C(=O)O[C@H]([C@H](C)C[C@@H]2CC[C@@H](O)[C@H](OC)C2)CC(=O)[C@H](C)/C=C(\C)[C@@H](O)[C@@H](OC)C(=O)[C@H](C)C[C@H](C)/C=C/C=C/C=C/1C)c1ccccc1 (some centres unmarked) [Compound 206] | 
7 |  |  | 0.316 to 3.16 | 1000 to 10000 | CO[C@@H]1C[C@H](C[C@@H](C)[C@@H]2CC(=O)[C@H](C)/C=C(\C)[C@@H](O)[C@@H](OC)C(=O)[C@H](C)C[C@H](C)/C=C/C=C/C=C(\C)C(OC(C)C)C[C@@H]3CC[C@@H](C)[C@@](O)(O3)C(=O)C(=O)N3CCCCC3C(=O)O2)CC[C@H]1O (stereo partly drawn) [Compound 208, (1R,9S,12S,15R,16E,18R,19R,21R,23S,24E,26E,28E,32S,35R)-1,18-dihydroxy-12-[(1R)-2-[(1S,3R,4R)-4-hydroxy-3-methoxy-cyclohexyl]-1-methyl-ethyl]-30-isopropoxy-19-methoxy-15,17,21,23,29,35-hexamethyl-11,36-dioxa-4-azatricyclo[30.3.1.0^4,9]hexatriaconta-16,24,26,28-tetraene-2,3,10,14,20-pentone] | 

The next lines start with the molecule.

Row | SMILES | pIC50 mTORC1 (mTORC1; [1]) | pIC50 mTORC2 (mTORC2; [2]) | IC50 (mTORC1) [nM] | IC50 (mTORC2) [nM] | other results
8 | COCCOC1C[C@@H]2CC[C@@H](C)[C@@](O)(O2)C(=O)C(=O)N2CCCC[C@H]2C(=O)O[C@H]([C@H](C)C[C@@H]2CC[C@@H](OCCN3CC4(COC4)C3)[C@H](OC)C2)CC(=O)[C@H](C)/C=C(\C)[C@@H](O)[C@@H](OC)C(=O)[C@H](C)C[C@H](C)/C=C/C=C/C=C/1C (mixture of isomers) [Compound 44] |  |  |  |  | IC50 (mTORC1; [1]): < 0.316 nM; IC50 (mTORC2; [2]): 1000 to 10000 nM
9 | CO[C@@H]1C[C@H](C[C@@H](C)[C@@H]2CC(=O)[C@H](C)/C=C(\C)[C@@H](O)[C@@H](OC)C(=O)[C@H](C)C[C@H](C)/C=C/C=C/C=C(\C)C(OC[C@@H](C)O)C[C@@H]3CC[C@@H](C)[C@@](O)(O3)C(=O)C(=O)N3CCCC[C@H]3C(=O)O2)CC[C@H]1OCCO (mixture of isomers) [Compound 49] |  |  |  |  | IC50 (mTORC1; [1]): 0.316 to 3.16 nM; IC50 (mTORC2; [2]): > 10000 nM
10 | CO[C@@H]1C[C@H](C[C@@H](C)[C@@H]2CC(=O)[C@H](C)/C=C(\C)[C@@H](O)[C@@H](OC)C(=O)[C@H](C)C[C@H](C)/C=C/C=C/C=C(\C)C(OCCO)C[C@@H]3CC[C@@H](C)[C@@](O)(O3)C(=O)C(=O)N3CCCC[C@H]3C(=O)O2)CC[C@H]1OCCN1CCCCC1 (mixture of isomers) [Compound 61] |  |  |  |  | IC50 (mTORC1; [1]): 0.316 to 3.16 nM; IC50 (mTORC2; [2]): > 10000 nM
11 | CO[C@@H]1C[C@H](C[C@@H](C)[C@@H]2CC(=O)[C@H](C)/C=C(\C)[C@@H](O)[C@@H](OC)C(=O)[C@H](C)C[C@H](C)/C=C/C=C/C=C(\C)C(OCCCO)C[C@@H]3CC[C@@H](C)[C@@](O)(O3)C(=O)C(=O)N3CCCC[C@H]3C(=O)O2)CC[C@H]1OCCCc1ccccc1 (mixture of isomers) [Compound 67, (1R,9S,12SR,15R,16E,18R,19R,21R,23S,24E,26E,28E,32SR,35R)-1,18-dihydroxy-30-(3-hydroxypropoxy)-19-methoxy-12-[(1R)-2-[(1S,3R,4R)-3-methoxy-4-(3-phenylpropoxy)cyclohexyl]-1-methyl-ethyl]-15,17,21,23,29,35-hexamethyl-11,36-dioxa-4-azatricyclo[30.3.1.0^4,9]hexatriaconta-16,24,26,28-tetraene-2,3,10,14,20-pentone] |  |  |  |  | IC50 (mTORC1; [1]): 0.316 to 3.16 nM; IC50 (mTORC2; [2]): > 10000 nM
12 | COCCOC1C[C@@H]2CC[C@@H](C)[C@@](O)(O2)C(=O)C(=O)N2CCCC[C@H]2C(=O)O[C@H]([C@H](C)C[C@@H]2CC[C@@H](OCCCN3CCC(C(C)(C)O)CC3)[C@H](OC)C2)CC(=O)[C@H](C)/C=C(\C)[C@@H](O)[C@@H](OC)C(=O)[C@H](C)C[C@H](C)/C=C/C=C/C=C/1C (mixture of isomers) [Compound 74] |  |  |  |  | IC50 (mTORC1; [1]): < 0.316 nM; IC50 (mTORC2; [2]): 1000 to 10000 nM
13 | CO[C@@H]1C[C@H](C[C@@H](C)[C@@H]2CC(=O)[C@H](C)/C=C(\C)[C@@H](O)[C@@H](OC)C(=O)[C@H](C)C[C@H](C)/C=C/C=C/C=C(\C)C(OCCO)C[C@@H]3CC[C@@H](C)[C@@](O)(O3)C(=O)C(=O)N3CCCC[C@H]3C(=O)O2)CC[C@H]1OCCCN1CC2(COC2)C1 (mixture of isomers) [Compound 78] |  |  |  |  | IC50 (mTORC1; [1]): 0.316 to 3.16 nM; IC50 (mTORC2; [2]): > 10000 nM
14 | COCCCO[C@@H]1CC[C@@H](C[C@@H](C)[C@@H]2CC(=O)[C@H](C)/C=C(\C)[C@@H](O)[C@@H](OC)C(=O)[C@H](C)C[C@H](C)/C=C/C=C/C=C(\C)C(OCCOC)C[C@@H]3CC[C@@H](C)[C@@](O)(O3)C(=O)C(=O)N3CCCCC3C(=O)O2)C[C@H]1OC (some centres unmarked) [Compound 14] | A (pIC50 for mTORC1 of >9.5 as A) | A (PIC50 for mTORC2 of <5 as A) |  |  | 
15 | CO[C@@H]1C[C@H](C[C@@H](C)[C@@H]2CC(=O)[C@H](C)/C=C(\C)[C@@H](O)[C@@H](OC)C(=O)[C@H](C)C[C@H](C)/C=C/C=C/C=C(\C)C(OCCO)C[C@@H]3CC[C@@H](C)[C@@](O)(O3)C(=O)C(=O)N3CCCCC3C(=O)O2)CC[C@H]1OCCCN1C[C@@H](C)O[C@@H](C)C1 (some centres unmarked) [Compound 18] | A (pIC50 for mTORC1 of >9.5 as A) | A (PIC50 for mTORC2 of <5 as A) |  |  | 
16 | COCCCOC1CC2CCC(C)C(O)(O2)C(=O)C(=O)N2CCCCC2C(=O)OC(C(C)CC2CCC(OCCCO)C(OC)C2)CC(=O)C(C)C=C(C)C(O)C(OC)C(=O)C(C)CC(C)C=CC=CC=C1C (centres unmarked) [Compound 33] | A (pIC50 for mTORC1 of >9.5 as A) | B (5 to 6 as B) |  |  | 
17 | COCCOC1CC2CCC(C)C(O)(O2)C(=O)C(=O)N2CCCCC2C(=O)OC(C(C)CC2CCC(OCCO)C(OC)C2)CC(=O)C(C)C=C(C)C(O)C(OC)C(=O)C(C)CC(C)C=CC=CC=C1C (centres unmarked) [Compound 40] | A (pIC50 for mTORC1 of >9.5 as A) | B (5 to 6 as B) |  |  | 
18 | CO[C@@H]1C[C@H](C[C@@H](C)[C@@H]2CC(=O)[C@H](C)/C=C(\C)[C@@H](O)[C@@H](OC)C(=O)[C@H](C)C[C@H](C)/C=C/C=C/C=C(\C)C(OCCO)C[C@@H]3CC[C@@H](C)[C@@](O)(O3)C(=O)C(=O)N3CCCCC3C(=O)O2)CC[C@H]1OCCCN1CCO[C@H](C)C1 (some centres unmarked) [Compound 43] | A (pIC50 for mTORC1 of >9.5 as A) | B (5 to 6 as B) |  |  | 
19 | COCCOC1CC2CCC(C)C(O)(O2)C(=O)C(=O)N2CCCCC2C(=O)OC(C(C)CC2CCC(OCC(O)CO)C(OC)C2)CC(=O)C(C)C=C(C)C(O)C(OC)C(=O)C(C)CC(C)C=CC=CC=C1C (centres unmarked) [Compound 45] | A (pIC50 for mTORC1 of >9.5 as A) | B (5 to 6 as B) |  |  | 
20 | CO[C@@H]1C[C@H](C[C@@H](C)[C@@H]2CC(=O)[C@H](C)/C=C(\C)[C@@H](O)[C@@H](OC)C(=O)[C@H](C)C[C@H](C)/C=C/C=C/C=C(\C)C(OCCO)C[C@@H]3CC[C@@H](C)[C@@](O)(O3)C(=O)C(=O)N3CCCCC3C(=O)O2)CC[C@H]1OC(=O)NCCO (some centres unmarked) [Compound 64] | B (8.5 to 9.5 as B) | A (PIC50 for mTORC2 of <5 as A) |  |  | 
21 | CO[C@@H]1C[C@H](C[C@@H](C)[C@@H]2CC(=O)[C@H](C)/C=C(\C)[C@@H](O)[C@@H](OC)C(=O)[C@H](C)C[C@H](C)/C=C/C=C/C=C(\C)C(OC[C@H](O)c3ccccc3)C[C@@H]3CC[C@@H](C)[C@@](O)(O3)C(=O)C(=O)N3CCCCC3C(=O)O2)CC[C@H]1OCCO (some centres unmarked) [Compound 88] | A (pIC50 for mTORC1 of >9.5 as A) | B (5 to 6 as B) |  |  | 
22 | CO[C@@H]1C[C@H](C[C@@H](C)[C@@H]2CC(=O)[C@H](C)/C=C(\C)[C@@H](O)[C@@H](OC)C(=O)[C@H](C)C[C@H](C)/C=C/C=C/C=C(\C)C(OCCCc3ccccc3)C[C@@H]3CC[C@@H](C)[C@@](O)(O3)C(=O)C(=O)N3CCCCC3C(=O)O2)CC[C@H]1O (some centres unmarked) [Compound 207] |  |  | 0.316 to 3.16 | 1000 to 10000 | 

Reference: patent publication US11702429B2, “mTORC modulators and uses thereof” (Aeovian Pharmaceuticals, Inc., priority 2019, dated 2023)
